Source: the NIST ThermoML archive (doi:10.1016/j.jct.2016.03.030)

Assay: xn = mol fraction of the nth substance listed
Conditions: 100 kPa, Liquid; for viscosity: Falling or rolling sphere viscometry; for mass density: Vibrating tube method

CCCC[N+]1(C)CCOCC1.[Br-] [4-butyl-4-methylmorpholinium bromide] + O
Conditions | mass density [kg/m3] | viscosity [mPa·s]
298.15 K, x1 = 0.0017 | 1002.2 | –
298.15 K, x1 = 0.0033 | 1007.1 | –
298.15 K, x1 = 0.0066 | 1016.8 | –
298.15 K, x1 = 0.0088 | 1022.9 | –
298.15 K, x1 = 0.0167 | 1043.3 | –
298.15 K, x1 = 0.034 | 1081.4 | –
298.15 K, x1 = 0.0363 | 1086 | 1.96
298.15 K, x1 = 0.0601 | 1125.3 | 3.204
298.15 K, x1 = 0.0988 | 1170.8 | 6.179
298.15 K, x1 = 0.1242 | 1192 | 9.576
298.15 K, x1 = 0.154 | 1211.4 | 15.07
298.15 K, x1 = 0.2027 | 1234.7 | 32.61
298.15 K, x1 = 0.2383 | 1247.4 | 57.4
298.15 K, x1 = 0.2569 | 1252.8 | 81.23
298.15 K, x1 = 0.3007 | 1263.9 | 159.1
303.15 K, x1 = 0.0017 | 1000.7 | –
303.15 K, x1 = 0.0033 | 1005.6 | –
303.15 K, x1 = 0.0066 | 1015.2 | –
303.15 K, x1 = 0.0088 | 1021.3 | –
303.15 K, x1 = 0.0167 | 1041.5 | –
303.15 K, x1 = 0.034 | 1079.1 | –
303.15 K, x1 = 0.0363 | 1083.7 | 1.715
303.15 K, x1 = 0.0601 | 1122.6 | 2.745
303.15 K, x1 = 0.0988 | 1167.7 | 5.16
303.15 K, x1 = 0.1242 | 1188.7 | 7.888
303.15 K, x1 = 0.154 | 1208.1 | 12.19
303.15 K, x1 = 0.2027 | 1231.3 | 25.31
303.15 K, x1 = 0.2383 | 1244 | 42.75
303.15 K, x1 = 0.2569 | 1249.4 | 60.27
303.15 K, x1 = 0.3007 | 1260.5 | 113.5
308.15 K, x1 = 0.0017 | 999.1 | –
308.15 K, x1 = 0.0033 | 1003.9 | –
308.15 K, x1 = 0.0066 | 1013.4 | –
308.15 K, x1 = 0.0088 | 1019.5 | –
308.15 K, x1 = 0.0167 | 1039.5 | –
308.15 K, x1 = 0.034 | 1076.7 | –
308.15 K, x1 = 0.0363 | 1081.3 | 1.5
308.15 K, x1 = 0.0601 | 1119.7 | 2.367
308.15 K, x1 = 0.0988 | 1164.5 | 4.353
308.15 K, x1 = 0.1242 | 1185.4 | 6.566
308.15 K, x1 = 0.154 | 1204.7 | 9.969
308.15 K, x1 = 0.2027 | 1227.9 | 20
308.15 K, x1 = 0.2383 | 1240.7 | 32.82
308.15 K, x1 = 0.2569 | 1246.1 | 45.77
308.15 K, x1 = 0.3007 | 1257.2 | 82.89
313.15 K, x1 = 0.0017 | 997.2 | –
313.15 K, x1 = 0.0033 | 1002 | –
313.15 K, x1 = 0.0066 | 1011.4 | –
313.15 K, x1 = 0.0088 | 1017.4 | –
313.15 K, x1 = 0.0167 | 1037.3 | –
313.15 K, x1 = 0.034 | 1074.2 | –
313.15 K, x1 = 0.0363 | 1078.7 | 1.323
313.15 K, x1 = 0.0601 | 1116.8 | 2.061
313.15 K, x1 = 0.0988 | 1161.3 | 3.716
313.15 K, x1 = 0.1242 | 1182.1 | 5.497
313.15 K, x1 = 0.154 | 1201.3 | 8.279
313.15 K, x1 = 0.2027 | 1224.5 | 16.07
313.15 K, x1 = 0.2383 | 1237.3 | 25.69
313.15 K, x1 = 0.2569 | 1242.7 | 35.46
313.15 K, x1 = 0.3007 | 1253.9 | 62.18
318.15 K, x1 = 0.0017 | 995.2 | –
318.15 K, x1 = 0.0033 | 999.9 | –
318.15 K, x1 = 0.0066 | 1009.3 | –
318.15 K, x1 = 0.0088 | 1015.3 | –
318.15 K, x1 = 0.0167 | 1034.9 | –
318.15 K, x1 = 0.034 | 1071.5 | –
318.15 K, x1 = 0.0363 | 1076 | 1.175
318.15 K, x1 = 0.0601 | 1113.8 | 1.81
318.15 K, x1 = 0.0988 | 1158 | 3.204
318.15 K, x1 = 0.1242 | 1178.7 | 4.65
318.15 K, x1 = 0.154 | 1197.9 | 6.951
318.15 K, x1 = 0.2027 | 1221.1 | 13.12
318.15 K, x1 = 0.2383 | 1233.9 | 20.44
318.15 K, x1 = 0.2569 | 1239.3 | 28.04
318.15 K, x1 = 0.3007 | 1250.6 | 47.76
323.15 K, x1 = 0.0017 | 993 | –
323.15 K, x1 = 0.0033 | 997.7 | –
323.15 K, x1 = 0.0066 | 1007 | –
323.15 K, x1 = 0.0088 | 1012.9 | –
323.15 K, x1 = 0.0167 | 1032.5 | –
323.15 K, x1 = 0.034 | 1068.8 | –
323.15 K, x1 = 0.0363 | 1073.2 | 1.039
323.15 K, x1 = 0.0601 | 1110.8 | 1.578
323.15 K, x1 = 0.0988 | 1154.6 | 2.745
323.15 K, x1 = 0.1242 | 1175.3 | 3.912
323.15 K, x1 = 0.154 | 1194.4 | 5.805
323.15 K, x1 = 0.2027 | 1217.7 | 10.72
323.15 K, x1 = 0.2383 | 1230.5 | 16.36
323.15 K, x1 = 0.2569 | 1235.9 | 22.35
323.15 K, x1 = 0.3007 | 1247.2 | 36.9
328.15 K, x1 = 0.0017 | 990.6 | –
328.15 K, x1 = 0.0033 | 995.3 | –
328.15 K, x1 = 0.0066 | 1004.5 | –
328.15 K, x1 = 0.0088 | 1010.4 | –
328.15 K, x1 = 0.0167 | 1029.8 | –
328.15 K, x1 = 0.034 | 1065.9 | –
328.15 K, x1 = 0.0363 | 1070.1 | 0.923
328.15 K, x1 = 0.0601 | 1107.6 | 1.387
328.15 K, x1 = 0.0988 | 1151.2 | 2.377
328.15 K, x1 = 0.1242 | 1171.8 | 3.323
328.15 K, x1 = 0.154 | 1191 | 4.888
328.15 K, x1 = 0.2027 | 1214.3 | 8.882
328.15 K, x1 = 0.2383 | 1227.1 | 13.28
328.15 K, x1 = 0.2569 | 1232.5 | 18.01
328.15 K, x1 = 0.3007 | 1243.9 | 29.03
333.15 K, x1 = 0.0017 | 988.1 | –
333.15 K, x1 = 0.0033 | 992.7 | –
333.15 K, x1 = 0.0066 | 1001.9 | –
333.15 K, x1 = 0.0088 | 1007.8 | –
333.15 K, x1 = 0.0167 | 1027.1 | –
333.15 K, x1 = 0.034 | 1062.9 | –
333.15 K, x1 = 0.0363 | 1067.3 | 0.83
333.15 K, x1 = 0.0601 | 1104.4 | 1.233
333.15 K, x1 = 0.0988 | 1147.8 | 2.082
333.15 K, x1 = 0.1242 | 1168.4 | 2.867
333.15 K, x1 = 0.154 | 1187.5 | 4.16
333.15 K, x1 = 0.2027 | 1210.8 | 7.465
333.15 K, x1 = 0.2383 | 1223.7 | 10.98
333.15 K, x1 = 0.2569 | 1229.1 | 14.86
333.15 K, x1 = 0.3007 | 1240.5 | 23.47
338.15 K, x1 = 0.0017 | 985.4 | –
338.15 K, x1 = 0.0033 | 990 | –
338.15 K, x1 = 0.0066 | 999.2 | –
338.15 K, x1 = 0.0088 | 1005 | –
338.15 K, x1 = 0.0167 | 1024.2 | –
338.15 K, x1 = 0.034 | 1059.9 | –
338.15 K, x1 = 0.0363 | 1064.3 | 0.751
338.15 K, x1 = 0.0601 | 1101.1 | 1.106
338.15 K, x1 = 0.0988 | 1144.3 | 1.836
338.15 K, x1 = 0.1242 | 1164.8 | 2.502
338.15 K, x1 = 0.154 | 1184 | 3.568
338.15 K, x1 = 0.2027 | 1207.3 | 6.337
338.15 K, x1 = 0.2383 | 1220.3 | 9.093
338.15 K, x1 = 0.2569 | 1225.8 | 12.32
338.15 K, x1 = 0.3007 | 1237.2 | 19.19
343.15 K, x1 = 0.0017 | 982.6 | –
343.15 K, x1 = 0.0033 | 987.2 | –
343.15 K, x1 = 0.0066 | 996.3 | –
343.15 K, x1 = 0.0088 | 1002.1 | –
343.15 K, x1 = 0.0167 | 1021.2 | –
343.15 K, x1 = 0.034 | 1056.7 | –
343.15 K, x1 = 0.0363 | 1061.1 | 0.685
343.15 K, x1 = 0.0601 | 1097.5 | 0.992
343.15 K, x1 = 0.0988 | 1140.8 | 1.633
343.15 K, x1 = 0.1242 | 1161.3 | 2.288
343.15 K, x1 = 0.154 | 1180.4 | 3.149
343.15 K, x1 = 0.2027 | 1203.8 | 5.442
343.15 K, x1 = 0.2383 | 1216.8 | 7.452
343.15 K, x1 = 0.2569 | 1222.4 | 10.42
343.15 K, x1 = 0.3007 | 1233.8 | 15.92
